Assays:
recombinant USP1 protein = biological target: T1, recombinant USP1 protein (Homo sapiens, UniProt O94782, DEL125-138/DEL229-408/DEL608-737); experiment: Binding affinity to recombinant USP1 protein by differential scanning fluorimetry; settings: compound 100 µM; 0.03 mg/mL USP1 (Δ1-66, Δ125-138, Δ229-408, Δ608-737); Tm with compound minus Tm with DMSO; read-out: ΔTm (°C)
T1 sequence (O94782 with tags, fused parts or gaps DEL125-138/DEL229-408/DEL608-737): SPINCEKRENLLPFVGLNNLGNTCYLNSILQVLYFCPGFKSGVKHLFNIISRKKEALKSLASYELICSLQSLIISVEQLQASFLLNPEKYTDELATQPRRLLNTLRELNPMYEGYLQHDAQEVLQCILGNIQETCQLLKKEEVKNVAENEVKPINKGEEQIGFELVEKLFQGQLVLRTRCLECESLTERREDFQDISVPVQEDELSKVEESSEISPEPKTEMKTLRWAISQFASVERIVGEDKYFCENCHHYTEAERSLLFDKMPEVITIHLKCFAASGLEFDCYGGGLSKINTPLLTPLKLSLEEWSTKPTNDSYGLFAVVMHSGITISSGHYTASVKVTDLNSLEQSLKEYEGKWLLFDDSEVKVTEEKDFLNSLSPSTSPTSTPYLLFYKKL
Outline: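 USP1 (Δ1-66, Δ125-138, Δ229-408, Δ608-737) at 0.03 mg/mL with dye in 50 mM Tris-HCl pH 8.0, 150 mM NaCl, 2% glycerol, 1 mM DTT; compounds at 100 µM final. Tm read on real-time PCR instrument; ΔTm = Tm with compound minus Tm with DMSO.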

UWB1.289 cells = experiment: Cell proliferation inhibitory activity in BRCA1/2-mutant or HRD-positive cells (Cell Titer-Glo); assay type: cell-based; settings: UWB1289; UWB1.289 cells, 144 hours after compound treatment, Cell Titer-Glo, 1.5 nM to 10 µM; read-out: GI50 UWB1.289 BRCA1 mut
Outline: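 UWB1.289 cells (1,000/well) in 50% MEBM/50% RPMI1640 exposed to […], final 1.5 nM to 10 µM, for 144 h at 37 °C. Viable cells measured by CellTiter-Glo luminescence; GI50 calculated.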

Structure (SMILES) | ΔTm at 100 µM (recombinant USP1 protein) | GI50 (UWB1.289 cells)
COc1ncnc(C2CC2)c1-c1ncc2cc(C(=O)NC(C)(C)CO)n(Cc3ccc(-c4nc(C(F)(F)F)cn4C(C)C)cc3)c2n1 [Example 156, 2-(4-cyclopropyl-6-methoxypyrimidin-5-yl)-N-(1-hydroxy-2-methylpropan-2-yl)-7-(4-(1-isopropyl-4-(trifluoromethyl)-1H-imidazol-2-yl)benzyl)-7H-pyrrolo[2,3-d]pyrimidine-6-carboxamide] | > 5 °C | < 0.1 µM
COc1ncnc(C2CC2)c1-c1ncc2cc(C(=O)NCCO)n(Cc3ccc(-c4nc(C(F)(F)F)cn4C(C)C)cc3)c2n1 [Example 157, 2-(4-cyclopropyl-6-methoxypyrimidin-5-yl)-N-(2-hydroxyethyl)-7-(4-(1-isopropyl-4-(trifluoromethyl)-1H-imidazol-2-yl)benzyl)-7H-pyrrolo[2,3-d]pyrimidine-6-carboxamide] | > 5 °C | < 0.1 µM
COc1ncnc(C2CC2)c1-c1ncc2cc(C(=O)NC3CCC(N(C)C)CC3)n(Cc3ccc(-c4nc(C(F)(F)F)cn4C(C)C)cc3)c2n1 (centres unmarked) [Example 158, 2-(4-cyclopropyl-6-methoxypyrimidin-5-yl)-N-(4-(dimethylamino)cyclohexyl)-7-(4-(1-isopropyl-4-(trifluoromethyl)-1H-imidazol-2-yl)benzyl)-7H-pyrrolo[2,3-d]pyrimidine-6-carboxamide] | > 5 °C | < 0.1 µM
COc1ncnc(C2CC2)c1-c1ncc2cc(C(=O)N[C@@H]3CCN(C)C[C@@H]3F)n(Cc3ccc(-c4nc(C(F)(F)F)cn4C)cc3)c2n1 [Example 161, 2-(4-cyclopropyl-6-methoxypyrimidin-5-yl)-N-((3S,4R)-3-fluoro-1-methylpiperidin-4-yl)-7-(4-(1-methyl-4-(trifluoromethyl)-1H-imidazol-2-yl)benzyl)-7H-pyrrolo[2,3-d]pyrimidine-6-carboxamide] | > 5 °C | < 0.1 µM
COc1ncnc(C2CC2)c1-c1ncc2cc(C(=O)N[C@H]3CCN(C)C[C@H]3F)n(Cc3ccc(-c4nc(C(F)(F)F)cn4C)cc3)c2n1 [Example 162, 2-(4-cyclopropyl-6-methoxypyrimidin-5-yl)-N-((3R, 4S) -3-fluoro-1-methylpiperidin-4-yl)-7-(4-(1-methyl-4-(trifluoromethyl)-1H-imidazol-2-yl)benzyl)-7H-pyrrolo[2,3-d]pyrimidine-6-carboxamide] | > 5 °C | < 0.1 µM
COc1ncnc(C2CC2)c1-c1ncc2cc(C(=O)NC[C@@H](C)O)n(Cc3ccc(-c4nc(C(F)(F)F)cn4C)cc3)c2n1 [Example 163, (R)-2-(4-cyclopropyl-6-methoxypyrimidin-5-yl)-N-(2-hydroxypropyl) -7-(4-(1-methyl-4-(trifluoromethyl)-1H-imidazol-2-yl)benzyl)-7H-pyrrolo[2,3-d]pyrimidine-6-carboxamide] | > 5 °C | < 0.1 µM
COc1ncnc(C2CC2)c1-c1ncc2cc(C(=O)NC[C@H](C)O)n(Cc3ccc(-c4nc(C(F)(F)F)cn4C)cc3)c2n1 [Example 164, (S)-2-(4-cyclopropyl-6-methoxypyrimidin-5-yl)-N-(2-hydroxypropyl) -7-(4-(1-methyl-4-(trifluoromethyl)-1H-imidazol-2-yl)benzyl)-7H-pyrrolo[2,3-d]pyrimidine-6-carboxamide] | > 5 °C | < 0.1 µM
COc1ncnc(C2CC2)c1-c1ncc2cc(C(=O)N[C@@H]3CCN(C)C[C@H]3F)n(Cc3ccc(-c4nc(C(F)(F)F)cn4C)cc3)c2n1 [Example 165, 2-(4-cyclopropyl-6-methoxypyrimidin-5-yl)-N-((3R,4R)-3-fluoro-1-methylpiperidin-4-yl)-7-(4-(1-methyl-4-(trifluoromethyl)-1H-imidazol-2-yl)benzyl)-7H-pyrrolo[2,3-d]pyrimidine-6-carboxamide] | > 5 °C | < 0.1 µM
COc1ncnc(C2CC2)c1-c1ncc2cc(C(=O)N[C@@H](C)CO)n(Cc3ccc(-c4nc(C(F)(F)F)cn4C)cc3)c2n1 [Example 166, (S)-2-(4-cyclopropyl-6-methoxypyrimidin-5-yl)-N-(1-hydroxypropan-2-yl)-7-(4-(1-methyl-4-(trifluoromethyl)-1H-imidazol-2-yl)benzyl)-7H-pyrrolo[2,3-d]pyrimidine-6-carboxamide] | > 5 °C | < 0.1 µM
COc1ncnc(C2CC2)c1-c1ncc2cc(C(=O)N[C@H]3CCN(C)C[C@@H]3F)n(Cc3ccc(-c4nc(C(F)(F)F)cn4C)cc3)c2n1 [Example 167, 2-(4-cyclopropyl-6-methoxypyrimidin-5-yl)-N-((3S,4S)-3-fluoro-1-methylpiperidin-4-yl)-7-(4-(1-methyl-4-(trifluoromethyl)-1H-imidazol-2-yl)benzyl)-7H-pyrrolo[2,3-d]pyrimidine-6-carboxamide] | > 5 °C | < 0.1 µM
COc1ncnc(C2CC2)c1-c1ncc2cc(C(=O)N[C@@H]3CCC[C@H]3N(C)C)n(Cc3ccc(-c4nc(C(F)(F)F)cn4C)cc3)c2n1 [Example 168, 2-(4-cyclopropyl-6-methoxypyrimidin-5-yl)-N-((1R,2R)-2-(dimethylamino)cyclopentyl)-7-(4-(1-methyl-4-(trifluoromethyl)-1H-imidazol-2-yl)benzyl)-7H-pyrrolo[2,3-d]pyrimidine-6-carboxamide] | > 5 °C | < 0.1 µM
COc1ncnc(C2CC2)c1-c1ncc2cc(C(=O)N[C@@H]3CCN(C)C3)n(Cc3ccc(-c4nc(C(F)(F)F)cn4C)cc3)c2n1 [Example 169, (R) -2-(4-cyclopropyl-6-methoxypyrimidin-5-yl)-7-(4-(1-methyl-4-(trifluoromethyl)-1H-imidazol-2-yl)benzyl)-N-(1-methylpyrrolidin-3-yl)-7H-pyrrolo[2,3-d]pyrimidine-6-carboxamide] | > 5 °C | < 0.1 µM
COc1ncnc(C2CC2)c1-c1ncc2cc(C(=O)N3CCN(C)CC3)n(Cc3ccc(-c4nc(C(F)(F)F)cn4C)cc3)c2n1 [Example 170, (2-(4-cyclopropyl-6-methoxypyrimid in-5-yl)-7-(4-(1-methyl-4-(trifluoromethyl)-1H-imidazol-2-yl)benzyl) -7H-pyrrolo[2,3-d]pyrimidin-6-yl) (4-methylpiperazi n-1-yl)methanone] | > 5 °C | 0.1 to 0.5 µM
COc1ncnc(C2CC2)c1-c1ncc2cc(C(=O)NC3CN(C)C3)n(Cc3ccc(-c4nc(C(F)(F)F)cn4C)cc3)c2n1 [Example 171, 2-(4-cyclopropyl-6-methoxypyrimidin-5-yl)-7-(4-(1-methyl-4-(trifluoromethyl)-1H-imidazol-2-yl)benzyl)-N-(1-methylazetidin-3-yl)-7H-pyrrolo[2,3-d]pyrimidine-6-carboxamide] | > 5 °C | < 0.1 µM
COc1ncnc(C2CC2)c1-c1ncc2cc(C(=O)NC3CCC(N(C)C)CC3)n(Cc3ccc(-c4nc(C(F)(F)F)cn4C)cc3)c2n1 (centres unmarked) [Example 172] | > 5 °C | < 0.1 µM
COc1ncnc(C2CC2)c1-c1ncc2cc(C(=O)N[C@H]3CCN(C)C3)n(Cc3ccc(-c4nc(C(F)(F)F)cn4C)cc3)c2n1 [Example 173, (S)-2-(4-cyclopropyl-6-methoxypyrimidin-5-yl)-7-(4-(1-methyl-4-(trifluoromethyl)-1H-imidazol-2-yl)benzyl)-N-(1-methylpyrrolidin-3-yl)-7H-pyrrolo[2,3-d]pyrimidine-6-carboxamide] | > 5 °C | < 0.1 µM
COc1ncnc(C2CC2)c1-c1ncc2cc(C(=O)N[C@H]3CCN(C)C3)n(Cc3ccc(-c4nc(C(F)(F)F)cn4C(C)C)cc3)c2n1 [Example 174, (S)-2-(4-cyclopropyl-6-methoxypyrimidin-5-yl)-7-(4-(1-isopropyl-4-(trifluoromethyl)-1H-imidazol-2-yl)benzyl)-N-(1-methylpyrrolidin-3-yl)-7H-pyrrolo[2,3-d]pyrimidine-6-carboxamide] | > 5 °C | < 0.1 µM
COc1ncnc(C2CC2)c1-c1ncc2cc(C(=O)N[C@@H]3CCN(C)C3)n(Cc3ccc(-c4nc(C(F)(F)F)cn4C(C)C)cc3)c2n1 [Example 175, (R)-2-(4-cyclopropyl-6-methoxypyrimidin-5-yl)-7-(4-(1-isopropyl-4-(trifluoromethyl)-1H-imidazol-2-yl)benzyl)-N-(1-methylpyrrolidin-3-yl)-7H-pyrrolo[2,3-d]pyrimidine-6-carboxamide] | > 5 °C | < 0.1 µM
COc1ncnc(C2CC2)c1-c1ncc2cc(C(=O)NC[C@@H](O)CO)n(Cc3ccc(-c4nc(C(F)(F)F)cn4C)cc3)c2n1 [Example 176, (R) -2-(4-cyclopropyl-6-methoxypyrimidin-5-yl)-N-(2,3-dihydroxypropy 1)-7-(4-(1-methyl-4-(trifluoromethyl)-1H-imidazol-2-yl)benzyl)-7H-pyrrolo[2,3-d]pyrimidine-6-carboxamide] | > 5 °C | 0.1 to 0.5 µM

Source: EP4806898A1, “HETEROARYL DERIVATIVE COMPOUND AND USE THEREOF” (Voronoi Inc., priority 2023, dated 2025)
